Results published in ChEMBL document CHEMBL4616670, “Phosphine Oxides from a Medicinal Chemist's Perspective: Physicochemical and in Vitro Parameters Relevant for Drug Discovery” (J Med Chem, 2020).
≈ marks a conversion by molar mass, not a printed value.

Experiments:
[1] = in vitro; conditions: human, liver microsomes
Description: Stability in human liver microsomes at 1 uM incubated prior to NADPH addition by LC-MS/MS analysis relative to hepatic blood flow

[2] = in vitro; conditions: human, Caco-2
Description: Efflux ratio of permeability in human Caco2 cells measured up to 2 hrs by LC-MS/MS analysis or scintillation counting method

[3] = in vitro; conditions: human, Caco-2; remark: listed apart in the source
Description: Permeability across apical to basolateral side in human Caco2 cells measured up to 2 hrs by LC-MS/MS analysis or scintillation counting method

[4] = physchem; conditions: pH 6.8 buffer
[5] = physchem; conditions: octanol/water, pH 2
Description: Octanol/water partition coefficient, log D of the compound at pH 2

[6] = in vitro; conditions: human, liver microsomes; remark: listed apart in the source
Description: Half life in human liver microsomes at 1 uM incubated prior to NADPH addition by LC-MS/MS analysis

[7] = physchem; conditions: octanol/water, pH 11
Description: Octanol/water partition coefficient, log D of the compound at pH 11

[8] = physchem; conditions: MeOH/HCl solution
Description: Chemical stability of the compound in MeOH/HCl solution at pH <1 assessed as compound decomposition measured after 7 days by UV-RP-HPLC analysis

[9] = physchem; conditions: pH 6.8 buffer; remark: listed apart in the source
[10] = 168 h
Description: Chemical stability of the compound in MeOH/NH3 solution at pH >10 assessed as compound decomposition measured after 7 days by UV-RP-HPLC analysis

[11] = Basic dissociation constant, pKb of the compound by UV absorption spectra analysis or potentiometric titration technique; type: physicochemical

| SMILES | hepatic extraction ratio at 1 µM [1] | efflux ratio at 2 h [2] | Papp A→B at 2 h [3] [×10⁻⁶ cm/s] | solubility thermodynamic at 24 h [4] [µg/mL] | logD [5] | half-life at 1 µM [6] [h] | logD [7] | degraded at 168 h [8] [%] | solubility thermodynamic at 24 h [9] [µg/mL] | Drug degradation [10] [%] | pKb [11] |
| --- | --- | --- | --- | --- | --- | --- | --- | --- | --- | --- | --- |
| Cc1ccc(NC(=O)c2ccc(C(=O)N(C)C)cc2)cc1Nc1nccc(-c2cccnc2)n1 | 0.37 | 2.2 | 19 | < 1 | 0.7 | 1.12 | 2 | – | – | – | – |
| CCP(=O)(CC)c1ccc(C(F)(F)F)cc1 | < 0.23 | 0.7 | 88 | > 60 | 2.3 | > 2.17 | 2 | < 10 | 22500 (≈ 89900 µM) | < 10 | – |
| CN=S(C)(=O)c1ccc(C(F)(F)F)cc1 (stereo not given) | – | 1 | 67 | > 54 | 0.7 | – | 1.7 | – | 2400 (≈ 10100 µM) | – | – |
| CC(C)OP(=O)(OC(C)C)c1ccc(C(F)(F)F)cc1 | < 0.23 | 0.5 | 84 | 29 (≈ 93.5 µM) | 4.3 | > 2.17 | 4.2 | < 10 | 400 (≈ 1290 µM) | < 10 | – |
| CNC(=O)c1ccc(C(F)(F)F)cc1 | – | 0.9 | 56 | > 51 | 1.9 | – | 1.6 | – | 200 (≈ 984 µM) | – | – |
| O=P1(c2ccc(C(F)(F)F)cc2)CCCC1 | < 0.23 | 0.7 | 69 | > 59 | 2 | > 2.17 | 1.7 | < 10 | 24500 (≈ 98700 µM) | < 10 | – |
| CCOP(C)(=O)c1ccc(C(=O)Nc2ccc(C)c(Nc3nccc(-c4cccnc4)n3)c2)cc1 (stereo not given) | 0.45 | 9.9 | 5 | 51 (≈ 105 µM) | 0.9 | 0.8 | 2.2 | – | – | – | – |
| CC(C)N1CCP(=O)(c2ccc(C(F)(F)F)cc2)CC1 | < 0.23 | 0.5 | 84 | > 68 | 0.2 | > 2.17 | 2 | < 10 | 23000 (≈ 75300 µM) | < 10 | 7 |
| CCOC(=O)c1ccc(C(=O)Nc2ccc(C)c(Nc3nccc(-c4cccnc4)n3)c2)cc1 | > 0.88 | – | – | < 1 | 1.9 | < 0.0833 | 3.5 | – | – | – | – |
| CCOP(=O)(OCC)c1ccncc1 | < 0.23 | 0.7 | 66 | > 50 | 0 | > 2.17 | 0.2 | – | 29500 (≈ 137000 µM) | – | – |
| CCP(=O)(CC)c1ccncc1 | < 0.23 | 0.6 | 19 | > 46 | < -1.8 | > 2.17 | -1 | – | 11600 (≈ 63300 µM) | – | – |
| COC(=O)c1ccc(C(F)(F)F)cc1 | – | – | – | < 1 | – | – | – | – | 20 (≈ 98 µM) | – | – |
| CCOP(C)(=O)c1ccncc1 (stereo not given) | < 0.23 | 0.6 | 54 | > 45 | -1.1 | > 2.17 | -0.7 | – | > 30000 | – | – |
| CP(C)(=O)c1ccc(C(F)(F)F)cc1 | < 0.23 | 0.5 | 82 | > 52 | 1.5 | > 2.17 | 1.1 | < 10 | > 30000 | < 10 | – |
| CNS(=O)(=O)c1ccc(C(F)(F)F)cc1 | – | 0.9 | 36 | > 49 | – | – | – | – | 900 (≈ 3760 µM) | – | – |
| CN(C)S(=O)(=O)c1ccc(C(F)(F)F)cc1 | – | – | – | 47 (≈ 186 µM) | 3.4 | – | – | – | 90 (≈ 355 µM) | – | – |
| O=P1(c2ccc(C(F)(F)F)cc2)CCCCC1 | < 0.23 | 1.1 | 49 | > 66 | 2.4 | > 2.17 | 2 | < 10 | 7700 (≈ 29400 µM) | < 10 | – |
| COP(=O)(OC)c1ccc(C(F)(F)F)cc1 | < 0.23 | 0.5 | 85 | 50 (≈ 197 µM) | 2.5 | > 2.17 | 2.2 | < 10 | 10100 (≈ 39700 µM) | < 10 | – |
